Converted amounts (≈) assume the structure as drawn. Where a SMILES comes first, the peptide text is derived from it. Bridges are numbered along the chain shown (N, C = ends). Roman numbers before positions name the chains, in order.
Experiments:
L929 cells = assay: Cytotoxic activity (WST-1 cell viability assay); assay type: cell-based, mouse; settings: 24 h treatment, WST-1, OD 460 nm
Procedure: The cytotoxicity of hybrid peptides was evaluated in mouse […] cells (L929, Korean Collection for Type Cultures, KCTC). L929 cells in RPMI1640-10% FBS (100 μL, 3 × 10^5 cells/ml) were seeded in 96-well plates and cultured at 37°C for 24 h in a 5% CO2 incubator. The L929 cells were treated with peptides at predetermined concentrations for 24 h, and 10 μl of EZ-Cytox Cell Viability Assay solution WST-1® (Daeil Lab Service, Korea) were added to each well. Three hours later, the cytotoxicity of peptides against L929 cells was assessed by measuring the optical density at 460 nm using a Perkin Elmer 2030 Reader (Victor X3).

[1] = tested on: all tested Candida strains; assay type: cell-based; settings: 4 h
Procedure: To determine the candidacidal activity of the peptides, we used Candida strains obtained from the Culture collection of antimicrobial resistant microbes at Seoul Women’s University in Korea. These included three Candida albicans (CCARM 14020, 14021, 14022), Candida guillermondi and Candida tropicalis. In addition, Candida albicans SC5413 was kindly provided by Dr Jeong-Yoon Kim at the Department of Microbiology & Molecular Biology, Chungnam University, Korea. Yeast were cultured overnight at 30°C in 10 ml of yeast extract-peptone-dextrose (YPD) broth (Qbiogene), then diluted in 10 ml of YPD broth to OD600 = 0.2 and grown for an additional 4 h with shaking at 30°C until OD600 = 0.8 in order to obtain mid-log phase cultures. The peptides (Hst 5, P113, HHP1, HHP2, PH1, PH2, di-PH1, di-PH2, WP1, di-WP2, di-15Hc and di-18Hc) in this study were synthesized by using standard solid-phase synthesis protocols and were purified by reversed-phase high-performance liquid chromatography at Anygen Inc. (Korea). FITC-labeled peptides (F-Hst5, F-P113, F-HHP1, F-di-PH2, F-di-WP2 and F-di-18Hc) were also synthesized by 6-aminohexnoic acid linker at Anygen (Korea) for confocal experiments.
The candidacidal activities of the peptides were tested by using standard microdilution plate assays, radial diffusion assays and broth dilution assay slightly modified from the procedure recommended by the National Committee for Clinical Laboratory Standards. For the candidacidal assays, C. albicans cells were grown in YPD medium and washed twice with 10 mM sodium phosphate buffer (NaPB; Na2HPO4, NaH2PO4, pH 7.4). The cells (1 x 10^6) were then mixed with different concentrations of peptides and incubated at 30°C with constant shaking for 60 min. For energy depletion experiments, cells were pre-incubated with 10 mM NaPB containing 5 mM NaN3 at 30°C for 60 min before the addition of peptides. The cell suspensions were diluted in 10 mM NaPB and aliquots of 500 cells were spread onto YPD agar plates then incubated for 24 h at 30°C to visualize the surviving colonies. Cell survival was expressed as a percentage of that for the control, and the loss of viability was calculated as [1 x (number of colonies from peptide-treated cells/number of colonies from control cells)] x 100. Candidacidal assays were performed in triplicate. For the radial diffusion assay, C. albicans cells were grown in YPD medium overnight and washed twice with 10 mM NaPB. Washed yeast-phase C. albicans cells (1 x 10^6 CFU) were trapped in thin underlay gels containing 9 mM sodium phosphate, 1 mM sodium citrate buffer, 1% (wt/vol) agarose (A6013; Sigma), and 0.3 mg of Sabouraud dextrose broth (Difco)/ml. After incubation at 37°C for 3 h, a 10 ml overlay gel of 1% agarose and 6% Sabouraud dextrose broth was poured on the underlay gel and then the plates were incubated overnight at 37°C. The clear-zone diameters were measured to the nearest 0.1 mm and graphed against the peptide concentration. Zone diameters were expressed in units (0.1 mm = 1 unit). For the broth dilution assay, the Candida strains were cultured in LYM broth for 18 h at 30°C. The numbers of yeasts were counted using a hemocytometer. Stock peptide solutions were prepared to a concentration of 320 μg/ml in distilled water, and were then serially diluted twofold, to 5 μg/ml. 100 μl aliquots of the diluted culture media containing candida cells (1 x 10^3) were dispensed into the wells of 96-well polypropylene microtiter plates (Costar 3879, Corning, NY), to which peptide solution (11 μl) was then added. In the experiments conducted to assess the candidacidal activity of peptides in the presence of salt, we used LYM supplemented with 150 mM NaCl for the culture medium, which was mixed with the peptide solution. The antifungal activities were evaluated after 24 h of incubation at 30°C by the observation of visible turbidity the wells. […]

MIC values [1]	Compound	CC50 (L929 cells)
	CC(C)C[C@H](NC(=O)CNC(=O)[C@H](Cc1c[nH]cn1)NC(=O)[C@H](Cc1c[nH]cn1)NC(=O)[C@H](CC(C)C)NC(=O)[C@H](CC(C)C)NC(=O)[C@H](C)NC(=O)[C@H](CC(N)=O)NC(=O)[C@H](CC(C)C)NC(=O)[C@@H](N)Cc1c[nH]c2ccccc12)C(=O)N[C@@H](CC(N)=O)C(=O)N[C@@H](CSSC[C@H](NC(=O)[C@H](CC(N)=O)NC(=O)[C@H](CC(C)C)NC(=O)CNC(=O)[C@H](Cc1c[nH]cn1)NC(=O)[C@H](Cc1c[nH]cn1)NC(=O)[C@H](CC(C)C)NC(=O)[C@H](CC(C)C)NC(=O)[C@H](C)NC(=O)[C@H](CC(N)=O)NC(=O)[C@H](CC(C)C)NC(=O)[C@@H](N)Cc1c[nH]c2ccccc12)C(=O)N[C@@H](C)C(=O)N[C@@H](CCCCN)C(=O)NCC(=O)N[C@H](C(=O)N[C@@H](CC(C)C)C(=O)N[C@@H](C)C(N)=O)C(C)C)C(=O)N[C@@H](C)C(=O)N[C@@H](CCCCN)C(=O)NCC(=O)N[C@H](C(=O)N[C@@H](CC(C)C)C(=O)N[C@@H](C)C(N)=O)C(C)C [di-18Hc, reference compound] (I: H-WLNALLHHGLNCAKGVLA-NH2 / II: H-WLNALLHHGLNCAKGVLA-NH2; disulfide I:12-II:12 (inferred); N-terminus assumed)	72.385 µg/mL (≈ 18.8 µM)
1 to 2 µg/mL	CC(C)C[C@H](NC(=O)CNC(=O)[C@H](Cc1c[nH]cn1)NC(=O)[C@H](Cc1c[nH]cn1)NC(=O)[C@H](CCCNC(=N)N)NC(=O)[C@H](CCCCN)NC(=O)[C@H](C)N)C(=O)N[C@@H](CC(N)=O)C(=O)N[C@@H](CSSC[C@H](NC(=O)[C@H](CC(N)=O)NC(=O)[C@H](CC(C)C)NC(=O)CNC(=O)[C@H](Cc1c[nH]cn1)NC(=O)[C@H](Cc1c[nH]cn1)NC(=O)[C@H](CCCNC(=N)N)NC(=O)[C@H](CCCCN)NC(=O)[C@H](C)N)C(=O)N[C@@H](C)C(=O)N[C@@H](CCCCN)C(=O)N[C@@H](Cc1ccccc1)C(=O)N[C@@H](Cc1c[nH]cn1)C(N)=O)C(=O)N[C@@H](C)C(=O)N[C@@H](CCCCN)C(=O)N[C@@H](Cc1ccccc1)C(=O)N[C@@H](Cc1c[nH]cn1)C(N)=O [di-PH2] (I: H-AKRHHGLNCAKFH-NH2 / II: H-AKRHHGLNCAKFH-NH2; disulfide I:9-II:9 (inferred); N-terminus assumed)	
2 to 4 µg/mL	CC(C)C[C@H](NC(=O)[C@@H](N)Cc1c[nH]c2ccccc12)C(=O)N[C@@H](CC(N)=O)C(=O)N[C@@H](C)C(=O)N[C@@H](CCCCN)C(=O)N[C@@H](CCCNC(=N)N)C(=O)N[C@@H](Cc1c[nH]cn1)C(=O)N[C@@H](Cc1c[nH]cn1)C(=O)NCC(=O)N[C@@H](Cc1ccc(O)cc1)C(=O)N[C@@H](CCCCN)C(=O)N[C@@H](CSSC[C@H](NC(=O)[C@H](CCCCN)NC(=O)[C@H](Cc1ccc(O)cc1)NC(=O)CNC(=O)[C@H](Cc1c[nH]cn1)NC(=O)[C@H](Cc1c[nH]cn1)NC(=O)[C@H](CCCNC(=N)N)NC(=O)[C@H](CCCCN)NC(=O)[C@H](C)NC(=O)[C@H](CC(N)=O)NC(=O)[C@H](CC(C)C)NC(=O)[C@@H](N)Cc1c[nH]c2ccccc12)C(=O)N[C@@H](CCCCN)C(=O)N[C@@H](Cc1ccccc1)C(=O)N[C@@H](Cc1c[nH]cn1)C(N)=O)C(=O)N[C@@H](CCCCN)C(=O)N[C@@H](Cc1ccccc1)C(=O)N[C@@H](Cc1c[nH]cn1)C(N)=O [di-WP2] (I: H-WLNAKRHHGYKCKFH-NH2 / II: H-WLNAKRHHGYKCKFH-NH2; disulfide I:12-II:12 (inferred); N-terminus assumed)	
